The target in the test is T1, MLK-7 (Homo sapiens, UniProt Q9NYL2).
T1 construct: GST; His tag; made in house; host or cells: Sf9 insect cells (baculovirus, pVL1392)
Put plainly: In vitro assay of purified MLK-7 kinase activity (33P transfer from ATP to myelin basic protein). The note with it: recombinant GST-tagged MLK-7 at 1 nm, 30 uM ATP, 5 uM MBP substrate, 2 hours room temperature; read-out: MLK7 IC50. The format is biochemical. From the text: In Vitro Assay of Purified Mixed Lineage Kinase 7 (MLK-7) Activity:
Briefly, recombinant glutathione-s-transferase (GST) tagged MLK-7 is expressed in Sf9 cells using a recombinant baculovirus created using baculovirus transfer vector pVL1392 modified to contain a GST and histidine tag. The recombinant protein is purified over a glutathione column and subsequently used for in vitro kinase assays with myelin basic protein (MBP) as the substrate for phosphorylation. The in vitro kinase reaction is run with recombinant MLK-7 at 1 nm and various concentrations of test compound in a reaction mixture containing 2 mM DTT, 30 uM ATP, 5 mM MgCl2, 5 uM MBP, 4% DMSO, 5 uCi 33P in 44 mM HEPES, (pH 7.4). The reaction is carried out for 2 hours at room temperature and then stopped by the addition of phosphoric acid to 5.5%. The phosphorylated MBP is collected on a filter and radioactivity associated with the membrane measured using a scintillation counter. Inhibitors are identified by the ability to reduce the transfer of radioactive phosphate from ATP to MBP compared to controls run without test compound.
IC50 values, defined as the concentration of test compound required to decrease the transfer of radioactive phosphate from ATP to MBP by 50%, are then determined. Ki values (which refers to the dissociation constant of an enzyme-antagonist complex and serves as an index of ligand binding) for each respective test compound can also be calculated by application of the Cheng-Prusoff equation as described in Cheng et al., Relationship Between The Inhibition Constant (Ki) and The Concentration of Inhibitor Which Causes 50% Inhibition (IC50) of an Enzymatic Reaction, Biochem. Pharmacol., 22: […]; (1973).
Representative compounds of the present invention have an IC50 in the MLK-7 kinase assay of ≦10,000 nM Table I (see infra.) provides IC50 data from the afore mentioned MLK-7 kinase assay for a representative sample of the exemplified compounds of the present invention.
Broadly, the IC50 is the concentration that gives 50% inhibition. “2-[4-(2-Pyridin-2-yl-5,6-dihydro-4H-pyrrolo[1,2-b]pyrazol-3-yl)quinolin-7-yl]phenyl}benzamide Trifluoroacetic Acid [Example 29]”: the IC50 is no more than 10000 nM.
“4-[4-(2-Pyridin-2-yl-5,6-dihydro-4H-pyrrolo[1,2-b]pyrazol-3-yl]phenylamine Ditrifluoroacetic Acid [Example 10]”: the IC50 is no more than 100 nM.
As for “5-[4-(2-pyridin-2-yl-5,6-dihydro-4H-pyrrolo[1,2-b]pyrazol-3-yl)-7-pyrimidin-5-yl-quinolin-7-yl]pyrimidin-2-ylamine Difluoroacetic Acid [Example 89]”, the figure is no more than 1000 nM.
With “7-(3,5-Dichlorophenyl)-4-(2-Pyridin-2-yl-5,6-dihydro-4H-pyrrolo[1,2-b]pyrazol-3-yl)quinoline Trifluoroacetic Acid [Example 31]”, the IC50 was no more than 1000 nM.
To “7-(3-Nitrophenyl)-4-(2-pyridin-2-yl-5,6-dihydro-4H-pyrrolo[1,2-b]pyrazol-3-yl)quinoline Trifluoroacetic Acid [Example 49]” belongs no more than 100 nM; to “7-(4-Benzo[b]thiophen-3-yl-phenyl)-4-(2-pyridin-2-yl-5,6-dihydro-4H-pyrrolo[1,2-b]pyrazol-3-yl)-quinoline Trifluoroacetic Acid [Example 54]”, no more than 1000 nM.
As for “7-(4-Methyl-3-nitro-phenyl)-4-(2-pyridin-2-yl-5,6-dihydro-4H-pyrrolo[1,2-b]pyrazol-3-yl)-quinoline Trifluoroacetic Acid [Example 52]”, the figure is no more than 100 nM.
As for `CC(C)(C)SCCNC(=O)c1ccc(-c2ccc3c(-c4c(-c5ccccn5)nn5c4CCC5)ccnc3c2)cc1` (racemic) [Example 127, (rac) N-(2-tert-Butylsulfanyl-ethyl)-4-[4-(2-pyridin-2-yl-5,6-dihydro-4H-pyrrolo[1,2-b]pyrazol-3-yl)-quinolin-7-yl]-benzamide], the figure is no more than 1000 nM; as for `O=C(NC1CCS(=O)(=O)C1)c1ccc(-c2ccc3c(-c4c(-c5ccccn5)nn5c4CCC5)ccnc3c2)cc1` (racemic) [Example 129, (rac)-N-(1,1-Dioxo-tetrahydro-1λ^6-thiophen-3-yl)-4-[4-(2-pyridin-2-yl-5,6-dihydro-4H-pyrrolo[1,2-b]pyrazol-3-yl)-quinolin-7-yl]-benzamide], no more than 100 nM; as for `Cc1csc(-c2ccc3c(-c4c(-c5ccccn5)nn5c4CCC5)ccnc3c2)c1` [Example 2, 7-(4-methylthiophen-2-yl)-4-(2-pyridin-2-yl-5,6-dihydro-4H-pyrrolo[1,2-b]pyrazol-3-yl)quinoline Trifluoroacetic Acid], no more than 100 nM.
In the case of `CC(=O)Nc1ccc(-c2ccc3c(-c4c(-c5ccccn5)nn5c4CCC5)ccnc3c2)cc1` [Example 3], the IC50 was no more than 100 nM.
As for `c1ccc(-c2ccc3c(-c4c(-c5ccccn5)nn5c4CCC5)ccnc3c2)cc1` [Example 4, 7-Phenyl-4-(2-pyridin-2-yl-5,6-dihydro-4H-pyrrolo[1,2-b]pyrazol-3-yl)quinoline Trifluoroacetic Acid], the figure is no more than 100 nM; as for `Oc1ccccc1-c1ccc2c(-c3c(-c4ccccn4)nn4c3CCC4)ccnc2c1` [Example 5], no more than 1000 nM.
To `Oc1cccc(-c2ccc3c(-c4c(-c5ccccn5)nn5c4CCC5)ccnc3c2)c1` [Example 6, 3-[4-(2-Pyridin-2-yl-5,6-dihydro-4H-pyrrolo[1,2-b]pyrazol-3-yl)quinolin-7-yl]phenol Trifluoroacetic Acid] belongs no more than 100 nM; to `Oc1ccc(-c2ccc3c(-c4c(-c5ccccn5)nn5c4CCC5)ccnc3c2)cc1` [Example 7, 4-[4-(2-Pyridin-2-yl-5,6-dihydro-4H-pyrrolo[1,2-b]pyrazol-3-yl)quinolin-7-yl]phenol Trifluoroacetic Acid], no more than 100 nM.
As for `Nc1ccccc1-c1ccc2c(-c3c(-c4ccccn4)nn4c3CCC4)ccnc2c1` [Example 8, 2-[4-(2-Pyridin-2-yl-5,6-dihydro-4H-pyrrolo[1,2-b]pyrazol-3-yl)quinolin-7-yl]phenylamine Ditrifluoroacetic Acid], the figure is no more than 1000 nM; as for `Nc1cccc(-c2ccc3c(-c4c(-c5ccccn5)nn5c4CCC5)ccnc3c2)c1` [Example 9], no more than 100 nM.
As to `Clc1cccc(-c2ccc3c(-c4c(-c5ccccn5)nn5c4CCC5)ccnc3c2)c1` [Example 11, 7-(3-Chlorophenyl)-4-(2-Pyridin-2-yl-5,6-dihydro-4H-pyrrolo[1,2-b]pyrazol-3-yl)quinoline Trifluoroacetic Acid], the IC50 was no more than 100 nM.
To `Clc1ccc(-c2ccc3c(-c4c(-c5ccccn5)nn5c4CCC5)ccnc3c2)cc1` [Example 12, 7-(4-Chlorophenyl)-4-(2-pyridin-2-yl-5,6-dihydro-4H-pyrrolo[1,2-b]pyrazol-3-yl)quinoline Trifluoroacetic Acid] belongs no more than 100 nM; to `O=[N+]([O-])c1ccc(-c2ccc3c(-c4c(-c5ccccn5)nn5c4CCC5)ccnc3c2)cc1` [Example 14, 7-(4-Nitrophenyl)-4-(2-pyridin-2-yl-5,6-dihydro-4H-pyrrolo[1,2-b]pyrazol-3-yl)quinoline Trifluoroacetic Acid], no more than 100 nM.
To `CS(=O)(=O)Nc1cccc(-c2ccc3c(-c4c(-c5ccccn5)nn5c4CCC5)ccnc3c2)c1` [Example 15, N-{3-[4-(2-Pyridin-2-yl-5,6-dihydro-4H-pyrrolo[1,2-b]pyrazol-3-yl)-quinolin-7-yl]-phenyl}methanesulfomamide Trifluoroacetic Acid] belongs no more than 100 nM; to `CS(=O)(=O)Nc1ccc(-c2ccc3c(-c4c(-c5ccccn5)nn5c4CCC5)ccnc3c2)cc1` [Example 16, N-{4-[4-(2-Pyridin-2-yl-5,6-dihydro-4H-pyrrolo[1,2-b]pyrazol-3-yl)quinolin-7-yl]phenyl}methanesulfonamide Trifluoroacetic Acid], no more than 100 nM.
As for `CCOc1ccccc1-c1ccc2c(-c3c(-c4ccccn4)nn4c3CCC4)ccnc2c1` [Example 17, 7-(2-Ethoxyphenyl)-4-(2-pyridin-2-yl-5,6-dihydro-4H-pyrrolo[1,2-b]pyrazol-3-yl)quinoline Trifluoroacetic Acid], the IC50 was no more than 10000 nM.
To `CCOc1cccc(-c2ccc3c(-c4c(-c5ccccn5)nn5c4CCC5)ccnc3c2)c1` [Example 18, 7-(3-Ethoxyphenyl)-4-(2-pyridin-2-yl-5,6-dihydro-4H-pyrrolo[1,2-b]pyrazol-3-yl)quinoline Trifluoroacetic Acid] belongs no more than 100 nM; to `CCOc1ccc(-c2ccc3c(-c4c(-c5ccccn5)nn5c4CCC5)ccnc3c2)cc1` [Example 19, 7-(4-Ethoxyphenyl)-4-(2-pyridin-2-yl-5,6-dihydro-4H-pyrrolo[1,2-b]pyrazol-3-yl)quinoline Trifluoroacetic Acid], no more than 100 nM.
As for `COc1ccc(-c2ccc3c(-c4c(-c5ccccn5)nn5c4CCC5)ccnc3c2)cc1` [Example 20, 7-(4-Methoxyphenyl)-4-(2-pyridin-2-yl-5,6-dihydro-4H-pyrrolo[1,2-b]pyrazol-3-yl)quinoline Trifluoroacetic Acid], the figure is no more than 100 nM; as for `Cc1cc(-c2ccc3c(-c4c(-c5ccccn5)nn5c4CCC5)ccnc3c2)ccc1F` [Example 21, 7-(4-Fluoro-3-methylphenyl)-4-(2-pyridin-2-yl-5,5-dihydro-4H-pyrrolo[1,2-b]pyrazol-3-yl)quinoline Trifluoroacetic Acid], no more than 1000 nM.
In the case of `Cc1cc(F)ccc1-c1ccc2c(-c3c(-c4ccccn4)nn4c3CCC4)ccnc2c1` [Example 22, 7-(4-Fluoro-2-methylphenyl)-4-(2-pyridin-2-yl-5,6-dihydro-4H-pyrrolo[1,2-b]pyrazol-3-yl)quinoline Trifluoroacetic Acid], the IC50 was no more than 1000 nM.
In the case of `Brc1ccc(-c2ccc3c(-c4c(-c5ccccn5)nn5c4CCC5)ccnc3c2)cc1` [Example 23, 7-(4-Bromophenyl)-4-(2-pyridin-2-yl-5,6-dihydro-4H-pyrrolo[1,2-b]pyrazol-3-yl)quinoline Trifluoroacetic Acid], the IC50 was no more than 100 nM.
To `CCSc1ccc(-c2ccc3c(-c4c(-c5ccccn5)nn5c4CCC5)ccnc3c2)cc1` [Example 24, 7-(4-Ethylsulfanylphenyl)-4-(2-pyridin-2-yl-5,6-dihydro-4H-pyrrolo[1,2-b]pyrazol-3-yl)quinoline Trifluoroacetic Acid] belongs no more than 1000 nM; to `CSc1ccc(-c2ccc3c(-c4c(-c5ccccn5)nn5c4CCC5)ccnc3c2)cc1` [Example 25, 7-(4-Methylsulfanylphenyl)-4-(2-pyridin-2-yl-5,6-dihydro-4H-pyrrolo[1,2-b]pyrazol-3-yl)quinoline Trifluoroacetic Acid], no more than 1000 nM.
